Laboratory results: patent publication US6933308B2 (Bristol-Myers Squibb Company, priority 2002, dated 2005)

Columns and labels:
[1] = test system: KCNQ channels; test: Thallium flux assay for KCNQ channel openers; type: cell-based; conditions: HEK-293 cells stably transfected with a KCNQ family member; for Min conc. response: minimal active concentration: lowest concentration giving signal >= 4 SD of negative controls; for EC50: thallium flux, 10 point concentration series
Protocol: Thallium Flux Assay for KCNQ Channel Openers.
The thallium assay is a modification of that published by Weaver and is referenced in its entirety (Weaver, C. D. WO 02/31508, 2002).
Approximately 20,000 cells/well of an HEK-293 cell line stably transfected with one of the members of the KCNQ family were plated into clear-bottom, black-walled, poly-D-lysine coated, 384 well assay plates in 20 μl/well of low chloride plating medium. Low chloride plating medium was composed of the following: sodium gluconate, 109 mM; potassium gluconate, 5.4 mM; hemi-calcium gluconate, 3.6 mM; magnesium sulfate, 0.8 mM; sodium bicarbonate, 26.2 mM; sodium phosphate monobasic, 1.2 mM; glutamine, 2 mM; glucose, 5 mM; 4-(2-hydroxyethyl)-1-piperazineethanesulfonic acid (HEPES) (pH 7.3) 10 mM, MEM vitamin solution (10× concentration of vitamins, Gibco/LifeTechnologies 11120-052) and MEM amino acid solution (1× concentration of amino acids, Gibco/LifeTechnologies 11130-051).
Following overnight incubation in a 5% CO2 incubator at 37° C., the cells in the plates were loaded with 20 μl/well of a dye loading solution containing the commercially available thallium-sensitive fluorescent dye BTC-AM, the acetomethoxy ester of BTC (see U.S. Pat. No. 5,501,980) (2 μM) and pluronic acid F-127 (Molecular Probes P 6867) (0.02% w/v) in chloride free assay buffer. Chloride free assay buffer was composed of the following: sodium gluconate, 140 mM; potassium gluconate, 2.5 mM; hemi-calcium gluconate, 6 mM; hemi-magnesium gluconate, 2 mM; glucose, 5 mM; HEPES (pH 7.3), 10 mM.
Following incubation in the dye loading solution for from 45-90 min at room temperature, the dye loading solution was removed by aspiration and replaced with 40 μl/well of chloride free assay buffer.
Prior to addition to cell plates, test compound and standard compounds were dissolved in DMSO to 3 mM concentration. Compounds were then diluted from the 3 mM stock to 100-fold over the final assay concentration in DMSO. Finally, compounds in DMSO were diluted from 100-fold over the final assay concentration to 5-fold over the final assay concentration in chloride free assay buffer.
Ten μl/well of compounds at 5-fold over the final assay concentration were then added to the cell plates. This represents a 1:5 dilution, yielding the final test concentration. The wells used for test compounds were A1-P20. Wells A21-P22 contained a standard opener and a maximally efficacious concentration (positive control). Wells A23-P24 contained chloride free assay buffer containing 1% DMSO (negative control).
Following addition of test compounds, the plates were loaded onto the Molecular Devices FLIPR. The 488 nm line of the argon laser was used to excite the BTC and the emission filter was a 540(+/−30) nm. Images were collected at 1 Hz. Ten seconds of baseline were collected and then the FLIPR was used to add 13 μl/well of a stimulus buffer composed of 7.5 mM Tl2SO4 in chloride free assay buffer. Images were collected for an additional 60 seconds.
For data analysis, the amplitude of the average of the negative controls was subtracted from all wells. The amplitudes of the test compounds were then compared to the value of four standard deviations of the negative control wells. The lowest concentration of a test compound sufficient to generate a signal amplitude greater than or equal to four standard deviations from the amplitude of the negative controls was defined as the minimal active concentration.
For generating EC50 values, compounds were serially diluted in 1:3 volume increments to produce a 10 point concentration series. EC50 values were calculated by fitting the resulting amplitudes to a single-site logistic equation. EC50 was defined as the concentration of test compound required to yield 50% of the maximal response. Maximal response (Maximal opening) was the largest signal amplitude divided by the negative control amplitude generated by any concentration of a test compound. […]

[2] = target: T1, mKCNQ2 channels (Mus musculus, UniProt Q9Z351); test: KCNQ whole-cell patch-clamp; type: cell-based; conditions: for verified in a patch-clamp assay measuring the effect of compounds on the current of KCNQ channels: HEK 293 cells expressing mKCNQ2; for EC50: HEK 293 stable cell line expressing mKCNQ2, steady-state current at end of 600 ms step from holding potential -80 mV
T1 construct: expressed in transfected cells
Protocol: Examples 8 and 11 were verified in a patch-clamp assay measuring the effect of compounds on the current of KCNQ channels.
KCNQ Patch-clamp. Whole-cell patch-clamp recordings were made from an HEK 293 stable cell line expressing mKCNQ2 channels, maintained in culture for 1-2 days. Patch pipettes had initial resistances of 2.5-4 MΩ. Currents were recorded with an EPC-9 amplifier (HEKA, Lambrecht, Germany) controlled with software (Pulse, HEKA) run on a standard lab PC. Series resistance compensation was used during current recording, and set at 80%. The series resistance (R) and cell capacitance (C) were determined electronically by subtracting the capacitive currents at the onset and offset of a 5 mV voltage step. The cancellation of whole-cell capacitive transients was virtually complete in all cells. Analog current signals were low-pass filtered at 2.9 kHz using a four-pole Bessel filter −3 dB) and stored on a local network server computer at a sampling rate of 1.5 kHz. All recordings were performed at room temperature (20-22° C.). The pipette solution contained (mM):KCl, 150; CaCl2, 2.5; EGTA, 5; MgCl2, 1; HEPES, 10; pH to 7.3 with KOH, and Osmolality of 290-300 mOsm. The extracellular solution contained (mM): NaCl, 140; KCl, 2.5; CaCl2, 2.5; MgCl2, 1; glucose, 10; HEPES, 10; pH to 7.3 with NaOH, and Osmolality of […].
Concentration response data were generated by measuring the difference in the steady-state amplitude of current in the presence of compound at the end of a 600 ms voltage-clamp step from a holding potential of −80 mV. The concentration-response data were fitted with Hill-type equations: I=Imax/(1+EC50/[A]^nH), where I is the steady-state current at a given concentration of agonist [A]; and Imax, EC50 and nH are parameters estimated from the curve fit. In some cases the concentration-response data were fitted with equations consisting of the sum of two Hill-type components. Current-voltage (I/V) relationships for agonist-evoked currents were obtained by performing 600 ms voltage steps (−110 mV to +40 mV) in the absence and presence of agonist.

Row | EC50 [1] | verified in a patch-clamp assay measuring the effect of compounds on the current of KCNQ channels [2] | EC50 [2] | SMILES | Min conc. response [1]
1 | 1000 to 20000 nM | verified | – | C[C@H](NC(=O)c1sc(CCN(C)Cc2ccco2)nc1C(F)(F)F)c1cccc(N2CCOCC2)c1 [Example 11, 2-[2-[(2-furanylmethyl)methylamino]ethyl]-N-[1-[3-(4-morpholinyl)phenyl]ethyl]-4-(trifluoromethyl)-5-thiazolecarboxamide] | 30 µM
2 | 50 to 1000 nM | – | 1230 nM | CC(NC(=O)c1sc(CCN2CCSCC2)nc1C(F)(F)F)c1cccc(C(F)(F)F)c1 (stereo not drawn) [Example 18, 2-[2-(4-thiomorpholinyl)ethyl]-4-(trifluoromethyl)-N-[1-[3-(trifluoromethyl)phenyl]ethyl]-5-thiazolecarboxamide] | 3 µM
3 | 50 to 1000 nM | – | 3560 nM | CCN(CC)CCc1nc(C(F)(F)F)c(C(=O)NC(C)c2cccc(OC(F)(F)F)c2)s1 (stereo not drawn) [Example 15] | 0.3 µM
4 | 1000 to 20000 nM | verified | – | CC(NC(=O)c1sc(CCN2CCOCC2)nc1C(F)(F)F)c1cccc(-c2cccnc2)c1 (stereo not drawn) [Example 8] | 10 µM
5 | 1000 to 20000 nM | – | – | CC(NC(=O)c1sc(CCN(C)Cc2ccncc2)nc1C(F)(F)F)c1cccc(C(F)(F)F)c1 (stereo not drawn) [Example 17, 2-[2-[(4-pyridylmethyl)methylamino]ethyl]-4-(trifluoromethyl)-N-[1-[3-(trifluoromethyl)phenyl]ethyl]-5-thiazolecarboxamide] | 3 µM
6 | 1000 to 20000 nM | – | – | C[C@H](NC(=O)c1sc(CCNCc2ccco2)nc1C(F)(F)F)c1cccc(-c2cccnc2)c1 [Example 35, 2-[2-[(2-furanylmethyl)amino]ethyl]-N-[1-[3-(3-pyridinyl)phenyl]ethyl]-4-(trifluoromethyl)-5-thiazolecarboxamide] | 10 µM
7 | 1000 to 20000 nM | – | – | C[C@H](NC(=O)c1sc(CCNC2CCCC2)nc1C(F)(F)F)c1cccc(-c2cccnc2)c1 [Example 37] | 30 µM
